The values that follow come from paper PMC3047710 (Chemmedchem, 2010).

Holding throughout (type): biochemical
For experiment [1], the target named is T1, HsDHFR (human DHFR) (Homo sapiens, UniProt P00374).
T1 sequence (P00374 1-187): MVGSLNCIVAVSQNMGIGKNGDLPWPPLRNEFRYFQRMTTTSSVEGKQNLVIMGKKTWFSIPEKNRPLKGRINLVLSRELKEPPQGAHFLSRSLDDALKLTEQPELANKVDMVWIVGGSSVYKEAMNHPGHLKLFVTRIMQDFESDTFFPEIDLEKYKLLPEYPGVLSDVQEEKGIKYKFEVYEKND
The experiment can be described thus: DHFR inhibition assay.

Experiment [2] deals with T2, TbDHFR (T. brucei dihydrofolate reductase) (Trypanosoma brucei, UniProt Q27783). The experiment can be described thus: DHFR inhibition assay.
T2 sequence (Q27783 whole entry): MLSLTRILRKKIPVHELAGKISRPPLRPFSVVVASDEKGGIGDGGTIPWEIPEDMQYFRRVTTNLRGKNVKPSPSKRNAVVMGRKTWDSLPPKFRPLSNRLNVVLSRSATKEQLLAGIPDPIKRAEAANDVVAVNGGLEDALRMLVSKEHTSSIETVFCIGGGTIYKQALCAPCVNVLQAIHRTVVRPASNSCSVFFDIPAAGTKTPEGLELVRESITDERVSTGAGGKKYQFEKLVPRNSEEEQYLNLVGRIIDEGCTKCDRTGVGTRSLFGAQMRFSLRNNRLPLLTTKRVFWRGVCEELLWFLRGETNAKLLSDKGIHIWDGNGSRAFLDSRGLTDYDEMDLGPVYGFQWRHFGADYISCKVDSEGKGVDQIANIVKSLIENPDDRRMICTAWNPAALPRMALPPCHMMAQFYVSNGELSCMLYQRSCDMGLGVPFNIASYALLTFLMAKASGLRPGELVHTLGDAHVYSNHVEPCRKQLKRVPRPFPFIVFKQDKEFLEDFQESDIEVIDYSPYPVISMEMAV
Experiment [3] has as its target T1, HsDHFR (human DHFR). In words: DHFR inhibition assay. Conditions: unreliable: sample contaminated with ~25% of compound 33.
Experiment [4] concerns the target T2, TbDHFR (T. brucei dihydrofolate reductase). The experiment can be described thus: DHFR inhibition assay. The following applies: unreliable: sample contaminated with ~25% of compound 33.
Experiment [5] has as its target T3, endogenous PTR1 in clarified T. brucei lysate (Trypanosoma brucei, UniProt O76290).
T3 sequence (O76290 1-268): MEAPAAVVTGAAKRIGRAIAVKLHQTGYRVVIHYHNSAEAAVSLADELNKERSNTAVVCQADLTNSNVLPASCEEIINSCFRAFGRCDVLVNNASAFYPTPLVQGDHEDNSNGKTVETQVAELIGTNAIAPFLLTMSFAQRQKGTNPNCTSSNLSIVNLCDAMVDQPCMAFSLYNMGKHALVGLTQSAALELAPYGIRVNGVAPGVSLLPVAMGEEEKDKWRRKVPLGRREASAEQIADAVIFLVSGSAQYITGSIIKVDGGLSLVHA
In words: HPLC-based PTR1 assay.

Experiment [6] addresses T4, TbPTR1 (T. brucei pteridine reductase 1) (Trypanosoma brucei, UniProt O76290).
T4 sequence (O76290 1-268): T3 sequence (O76290 1-268)
The experiment can be described thus: HPLC-based PTR1 assay.

As a reminder, the IC50 is the concentration needed to halve the response being measured. Higher therefore signals lower potency. Take `COc1cccc2nc(N)n(Cc3ccc(Cl)c(Cl)c3)c12` [compound 33]: the IC50 in experiment [1] is over 50 µM; in experiment [2] it was over 30 µM.

For `Nc1nc2ccccc2n1Cc1ccc(Cl)c(Cl)c1` [compound 11], the IC50 in experiment [1] and in experiment [2] was over 50 µM throughout.

For `Nc1nc2c(Cl)cccc2n1Cc1ccc(Cl)c(Cl)c1` [compound 24], the half-inhibitory concentration (IC50) was over 50 µM in experiment [1] and over 30 µM in experiment [2].

`Cc1cc2nc(N)n(Cc3ccc(Cl)c(Cl)c3)c2cc1C` [compound 34]: the IC50 in experiment [1] and in experiment [2] was over 30 µM each time.

For `Nc1nc2c(-c3ccccc3)cccc2n1Cc1ccc(Cl)c(Cl)c1` [compound 27], the IC50 in experiment [1] and in experiment [2] was over 30 µM each time.

`Nc1nc2cccc(OCc3ccccc3)c2n1Cc1ccc(Cl)c(Cl)c1` [compound 31]: the IC50 in experiment [1] and in experiment [2] was over 50 µM each time.

For the compound `CCCOc1cccc2nc(N)n(Cc3ccc(Cl)c(Cl)c3)c12` [compound 30], the IC50 in experiment [1] is over 50 µM; in experiment [2], over 30 µM.

With `COc1cccc2c1nc(N)n2Cc1ccc(Cl)c(Cl)c1` [compound 28], the “HsDHFR IC50” value in experiment [3] was over 50 µM. The “TbDHFR IC50” value in experiment [4] was over 30 µM.

As to `CCCOc1cccc2c1nc(N)n2Cc1ccc(Cl)c(Cl)c1` [compound 25], the values for the IC50 in experiment [1] and in experiment [2] were over 50 µM and over 30 µM, respectively.

For `Nc1nc2cccc(-c3ccccc3)c2n1Cc1ccc(Cl)c(Cl)c1` [compound 32], the half-inhibitory concentration (IC50) in experiment [1] was over 50 µM; in experiment [2], over 50 µM; in experiment [5], 0.00088 ± 0.00013 µM; in experiment [6], 0.00099 ± 0.00013 µM.

Regarding `Nc1nc2c(OCc3ccccc3)cccc2n1Cc1ccc(Cl)c(Cl)c1` [compound 26], the IC50 in experiment [1] and in experiment [2] was over 50 µM each time.

In the case of `Nc1nc2cccc(Cl)c2n1Cc1ccc(Cl)c(Cl)c1` [compound 29], the IC50 in experiment [1] was over 50 µM; in experiment [2], over 30 µM.
